Here are results for one compound from patent publication US5705491A, “Adenosine deaminase inhibitor” (Nippon Zoki Pharmaceutical Co., Ltd., priority 1992, dated 1998).

In test [1] the test system is Human peripheral polymorphonuclear leukocyte (PML). Nature of the test: Inhibitory action against activated oxygen (superoxide) generation. It counts as cell-based. The note with it: FMLP 10^-7 M; for inhibition at 100 µM: 1 × 10^-4 M; for inhibition at 10 µM: 1 × 10^-5 M; for inhibition at 1 µM: 1 × 10^-6 M. Here is the method: 3. Inhibitory Action against Activated Oxygen Generation
Human peripheral polymorphonuclear leukocyte (PML, 2×10^6 cells) prepared in a conventional method, bovine heart cytochrome C type-III (75 nmol), cytocharasin (5 μg) and tested drug were mixed with HEPES-buffered saline solution (final 1 ml) and incubated for 5 minutes at 37° C. N-Formyl-methionyl-leucyl-phenylalanine (FMLP) was added (final 10^-7 M) and incubated for 5 minutes. Immediately after the incubation, the reaction mixture was centrifuged at 4° C., and then the absorbance at 550 nm of the supernatant was measured with a spectrophotometer.
An excess amount of bovine liver superoxide dismutase (SOD) was added to the reaction mixture and the absorbance of the supernatant was also measured in the same manner as above as a blank value.
A portion of adenosine deaminase (ADA) may be removed during the preparation of human peripheral PML. Therefore, the inhibitory action against the generation of superoxide of the tested drug was measured in the same manner as mentioned above, adding 0.02 units of bovine liver ADA with human peripheral PML.
The inhibition against superoxide generation was calculated by the following equation, and examples of the results are given in Table 4. [formula]

For test [2], the system named is rats administered with puromycin aminonucleoside (nephritis model). Nature of the test: Therapeutic action to nephritis (puromycin aminonucleoside rats). It counts as in vivo, male rat (SD strain). As to conditions: 50 mg/kg oral, five consecutive days. Here is the method:
2. Therapeutic Action to Nephritis.
When puromycin aminonucleoside is administered to rats, symptoms similar to protein-rich urine, hypoproteinemia, hyperlipemia, nephrotic syndrome, etc, result and, therefore, rats which are administered with puromycin aminonucleoside have been used as pathological model animals for nephritis. The chemical name for puromycin aminonucleoside is 3'-amino-3'-deoxy-N,N-dimethyladenosine. A method by Endo, et al. [Sogo Rinsho, vol. 38, no. 5, page 821 (1989)] was somewhat modified and used as a test method here. Thus, a solution of puromycin aminonucleoside was dissolved in a physiological saline liquid and administered just once to a tail vein of a male rat (SD strain) of about 200 g body weight at a dose of 100 mg/kg (the initial of zero-th day).
The compound to be tested was dissolved in a physiological saline liquid and was given orally for five consecutive days from the zero-th day at a dose of 50 mg/kg each. After 24 hours, the accumulated urine was collected and the amount of urine and the amount of protein in the urine was measured. Blood was collected on the tenth day and the total protein in serum, creatinine in serum and urea nitrogen were measured.
Examples of the results are given in Tables 2 and where the control is those animals injected only with the puromycin aminonucleoside: […]

For test [3], the target named is T1, adenosine deaminase of type VII (mucous membrane of intestinal tract of calf) (Bos taurus, UniProt P56658).
T1 construct: from tissue; host or cells: mucous membrane of intestinal tract of calf
T1 sequence (P56658 1-363): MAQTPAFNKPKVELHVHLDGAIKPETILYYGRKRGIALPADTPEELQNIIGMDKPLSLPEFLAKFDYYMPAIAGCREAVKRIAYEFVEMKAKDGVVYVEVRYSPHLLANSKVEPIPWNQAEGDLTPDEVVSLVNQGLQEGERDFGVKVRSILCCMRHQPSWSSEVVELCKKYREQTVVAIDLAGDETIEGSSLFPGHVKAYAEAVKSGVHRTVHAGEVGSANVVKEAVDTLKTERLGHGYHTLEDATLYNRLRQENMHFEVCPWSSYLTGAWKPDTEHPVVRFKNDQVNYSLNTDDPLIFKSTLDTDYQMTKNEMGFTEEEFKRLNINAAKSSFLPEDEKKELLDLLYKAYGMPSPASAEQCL
As to the kind of experiment: Adenosine deaminase inhibiting action. The class given is biochemical. The note with it: 25° C., 0.05M phosphate buffer pH 7.5, adenosine substrate, 5 minutes, Lineweaver-Burk plots. The method, then: 1. Adenosine Deaminase Inhibiting Action
The enzymatic reaction was conducted at 25° C. in a 0.05M phosphate buffer (pH=7.5). Thus, a reaction solution comprising 800 μl of substrate solution (adenosine), 100 μl of a solution to be tested and 100 μl of enzyme solution (adenosine deaminase of type VII; mucous membrane of intestinal tract of calf) was reacted for 5 minutes and the reaction was stopped by adding 100 μl of acetic acid. Then the amount of inosine produced was determined by means of an HPLC to measure the inhibiting activity. The test was conducted for various substrate concentrations and Ki values were measured by Lineweaver-Burk plots.

Test [4] relates to ischemic edema of hind paw of mice. Nature of the test: Suppressive action against ischemic edema. It counts as in vivo, ICR-strain male mice. The method, then:
4. Suppressive Action against Ischemic Edema
The right hind paw of ICR-strain male mice (11 weeks of age) were fastened with a rubber band to stop the blood stream for 20 minutes, and then the rubber band was removed to recover the blood stream. The tested drug was administered intravenously before the treatment. Each of the right and left hind paws were weighed and the suppressive action was measured according to the weight difference between the treated and untreated paws.

[5] abbreviates: with ADA (0.02 units bovine liver).

The inhibition is the share of the control response that was lost under treatment. Lower therefore signals a response near the control. Usually Ki stands for a dissociation constant, usually derived from enzyme kinetics or from competition with a known ligand. Consider `CNc1nc(C)nc2c1ncn2[C@@H]1O[C@H](CO)[C@@H](O)[C@H]1OC` [Compound 27, 2, N^6,2'-O-Trimethyladenosine], for which the inhibition at 100 µM in test [1] (setting [5]) worked out at 88%; in test [1] (without ADA) it was 79%. The figures for the inhibition at 10 µM in test [1] (setting [5]) and in test [1] (without ADA) were 77% and 22%, respectively. Besides, the values for the inhibition at 1 µM in test [1] (setting [5]) and in test [1] (without ADA) were 34% and 2%, respectively. For the same compound, the inhibition at 0.1 µM in test [1] (with ADA (0.02 units bovine liver), 1 × 10^-7 M) is 10%. The compound also came in with an inhibition at 1000 µM in test [1] (without ADA, 1 × 10^-3 M) of 100%. Moreover, the “Serum Creatinine” value in test [2] (blood on tenth day) amounted to 0.71 mg/dL. For the same compound, the “Total Protein in Serum” value in test [2] (blood on tenth day) came to 7.44 g/dL. In test [2] (blood on tenth day), the “Urea Nitrogen” value is 31.9 mg/dL. Also, the “Amount of Protein in Urine” value in test [2] (1st day) worked out at 0 mg/day; in test [2] (2nd day) it was 29.2 mg/day; in test [2] (3rd day), 33.8 mg/day; in test [2] (4th day), 122.5 mg/day; in test [2] (5th day) it was 399.8 mg/day; in test [2] (6th day) it was 443.7 mg/day. Further, the “Amount of Protein in Urine” value worked out at 558.7 mg/day in test [2] (7th day), 595.6 mg/day in test [2] (8th day), 593.5 mg/day in test [2] (9th day) and 528.6 mg/day in test [2] (10th day). The compound also showed a Ki in test [3] of 859 nM. Besides, the “Paw Weight, Treated” value in test [4] (10 mg/kg intravenous before ischemia, treated paw) turned out to be 254.4 ± 6.6 mg. In test [4] (10 mg/kg intravenous, from weight difference between treated and untreated paws), the “Inhibition (of ischemic edema)” value is 67.7%.
